Test results as given in patent US10815230B2, “Casein kinase 1 delta inhibitor” (ELECTROPHORETICS LIMITED, priority 2015, dated 2020).

Tests used:
Type in all cases: biochemical
[1] = molecular target: CK1a1 (Homo sapiens, UniProt P48729); assay: Kinase selectivity, % remaining activity; settings: CK1a1, 10 μM compound, 10 μM ATP, duplicate
Method: (§1) Compounds were tested in single dose duplicate mode at a concentration of 10 μM (in DMSO) and reactions were carried out at 10 μM ATP, Table 3 reports the % of remaining activity (relative to DMSO).

[2] = molecular target: ABL2/ARG (Homo sapiens, UniProt P42684); assay: Kinase selectivity, % remaining activity; settings: 10 μM compound, 10 μM ATP, duplicate
Method: (§2) A two-tier strategy to determine the selectivity of compound A was applied: first, the compound was tested at a single concentration (in duplicate) to determine the %-remaining activity of the target kinase. Subsequently, the IC50 of compound A and comparative compounds for casein kinase 1 delta were determined.
as §1

[3] = molecular target: T1, ALK5/TGFBR1 (Homo sapiens, UniProt P36897); assay: Kinase selectivity, % remaining activity; settings: 10 μM compound, 10 μM ATP, duplicate
T1 sequence (P36897 34-503): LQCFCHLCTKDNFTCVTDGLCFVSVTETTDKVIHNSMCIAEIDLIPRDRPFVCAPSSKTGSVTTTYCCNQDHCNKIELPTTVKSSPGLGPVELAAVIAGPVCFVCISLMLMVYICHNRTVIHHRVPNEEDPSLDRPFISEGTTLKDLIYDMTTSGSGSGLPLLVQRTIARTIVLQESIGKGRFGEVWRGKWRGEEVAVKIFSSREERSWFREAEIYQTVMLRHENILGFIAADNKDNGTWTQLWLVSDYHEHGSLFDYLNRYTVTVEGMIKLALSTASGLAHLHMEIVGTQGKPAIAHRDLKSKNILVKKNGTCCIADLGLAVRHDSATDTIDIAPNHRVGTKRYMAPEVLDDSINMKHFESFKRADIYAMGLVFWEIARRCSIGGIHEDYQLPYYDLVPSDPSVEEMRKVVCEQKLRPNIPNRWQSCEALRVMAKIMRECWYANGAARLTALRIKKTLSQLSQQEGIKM
Method: as §2, §1

[4] = molecular target: CDK5/p25 (Homo sapiens, UniProt Q00535); assay: Kinase selectivity, % remaining activity; settings: 10 μM compound, 10 μM ATP, duplicate
Method: as §2, §1

[5] = molecular target: CK1e (Homo sapiens, UniProt P49674); assay: Kinase selectivity, % remaining activity; settings: 10 μM compound, 10 μM ATP, duplicate
Method: as §2, §1

[6] = molecular target: CK1g1 (Homo sapiens, UniProt Q9HCP0); assay: Kinase selectivity, % remaining activity; settings: 10 μM compound, 10 μM ATP, duplicate
Method: as §2, §1

[7] = molecular target: CK1g2 (Homo sapiens, UniProt P78368); assay: Kinase selectivity, % remaining activity; settings: 10 μM compound, 10 μM ATP, duplicate
Method: as §2, §1

[8] = molecular target: CK1g3 (Homo sapiens, UniProt Q9Y6M4); assay: Kinase selectivity, % remaining activity; settings: 10 μM compound, 10 μM ATP, duplicate
Method: as §2, §1

[9] = molecular target: CLK2 (Homo sapiens, UniProt P49760); assay: Kinase selectivity, % remaining activity; settings: 10 μM compound, 10 μM ATP, duplicate
Method: as §2, §1

[10] = molecular target: EGFR (Homo sapiens, UniProt P00533); assay: Kinase selectivity, % remaining activity; settings: 10 μM compound, 10 μM ATP, duplicate
Method: as §2, §1

[11] = molecular target: EPHA2 (Homo sapiens, UniProt P29317); assay: Kinase selectivity, % remaining activity; settings: 10 μM compound, 10 μM ATP, duplicate
Method: as §2, §1

[12] = molecular target: FGFR1 (Homo sapiens, UniProt P11362); assay: Kinase selectivity, % remaining activity; settings: 10 μM compound, 10 μM ATP, duplicate
Method: as §2, §1

[13] = molecular target: GSK3B (Homo sapiens, UniProt P49841); assay: Kinase selectivity, % remaining activity; settings: 10 μM compound, 10 μM ATP, duplicate
Method: as §2, §1

[14] = molecular target: JNK2 (Homo sapiens, UniProt P45984); assay: Kinase selectivity, % remaining activity; settings: 10 μM compound, 10 μM ATP, duplicate
Method: as §2, §1

[15] = molecular target: KDR/VEGFR2 (Homo sapiens, UniProt P35968); assay: Kinase selectivity, % remaining activity; settings: 10 μM compound, 10 μM ATP, duplicate
Method: as §2, §1

[16] = molecular target: LCK (Homo sapiens, UniProt P06239); assay: Kinase selectivity, % remaining activity; settings: 10 μM compound, 10 μM ATP, duplicate
Method: as §2, §1

[17] = molecular target: MSK1/RPS6KA5 (Homo sapiens, UniProt O75582); assay: Kinase selectivity, % remaining activity; settings: 10 μM compound, 10 μM ATP, duplicate
Method: as §2, §1

[18] = molecular target: P38a/MAPK14 (Homo sapiens, UniProt Q16539); assay: Kinase selectivity, % remaining activity; settings: 10 μM compound, 10 μM ATP, duplicate
Method: as §2, §1

[19] = molecular target: T2, PDK1/PDPK1 (Homo sapiens, UniProt O15530); assay: Kinase selectivity, % remaining activity; settings: 10 μM compound, 10 μM ATP, duplicate
T2 sequence (O15530 1-556): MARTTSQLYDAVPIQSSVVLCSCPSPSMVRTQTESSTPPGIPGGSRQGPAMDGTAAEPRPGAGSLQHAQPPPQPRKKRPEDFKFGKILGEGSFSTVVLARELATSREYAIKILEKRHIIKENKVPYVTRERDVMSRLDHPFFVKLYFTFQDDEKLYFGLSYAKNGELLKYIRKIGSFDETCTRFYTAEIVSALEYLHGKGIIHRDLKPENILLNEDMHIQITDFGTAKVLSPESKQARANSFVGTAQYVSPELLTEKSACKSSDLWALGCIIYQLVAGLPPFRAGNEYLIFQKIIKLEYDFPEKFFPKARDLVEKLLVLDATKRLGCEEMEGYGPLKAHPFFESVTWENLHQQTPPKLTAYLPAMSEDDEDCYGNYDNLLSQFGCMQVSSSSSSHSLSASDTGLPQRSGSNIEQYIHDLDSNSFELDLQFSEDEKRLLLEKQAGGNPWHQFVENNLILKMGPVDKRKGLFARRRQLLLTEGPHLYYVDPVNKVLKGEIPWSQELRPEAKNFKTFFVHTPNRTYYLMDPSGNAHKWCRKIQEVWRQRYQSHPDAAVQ
Method: as §2, §1

[20] = molecular target: PIM3 (Homo sapiens, UniProt Q86V86); assay: Kinase selectivity, % remaining activity; settings: 10 μM compound, 10 μM ATP, duplicate
Method: as §2, §1

[21] = molecular target: PKA (Homo sapiens, UniProt P17612); assay: Kinase selectivity, % remaining activity; settings: 10 μM compound, 10 μM ATP, duplicate
Method: as §2, §1

[22] = molecular target: PKCb2 (Homo sapiens, UniProt P05771); assay: Kinase selectivity, % remaining activity; settings: 10 μM compound, 10 μM ATP, duplicate
Method: as §2, §1

[23] = molecular target: RIPK2 (Homo sapiens, UniProt O43353); assay: Kinase selectivity, % remaining activity; settings: 10 μM compound, 10 μM ATP, duplicate
Method: as §2, §1

[24] = molecular target: ROCK1 (Homo sapiens, UniProt Q13464); assay: Kinase selectivity, % remaining activity; settings: 10 μM compound, 10 μM ATP, duplicate
Method: as §2, §1

[25] = molecular target: TNIK (Homo sapiens, UniProt Q9UKE5); assay: Kinase selectivity, % remaining activity; settings: 10 μM compound, 10 μM ATP, duplicate
Method: as §2, §1

[26] = molecular target: YES/YES1 (Homo sapiens, UniProt P07947); assay: Kinase selectivity, % remaining activity; settings: 10 μM compound, 10 μM ATP, duplicate
Method: as §2, §1

[27] = molecular target: CK1d (casein kinase 1 delta) (Homo sapiens, UniProt P48730); assay: Kinase selectivity, % remaining activity and IC50; settings: 10 μM ATP; for IC50: casein kinase 1 delta, 10-dose, 3 fold serial dilution
Method: as §2, §1
Control compound GW5074 (Tocris®) was tested starting at 20 μM. Reactions were carried out at 10 μM ATP.

[28] = read-out: % of remaining activity (relative to DMSO)

CK1d (casein kinase 1 delta), sequence (P48730 whole entry): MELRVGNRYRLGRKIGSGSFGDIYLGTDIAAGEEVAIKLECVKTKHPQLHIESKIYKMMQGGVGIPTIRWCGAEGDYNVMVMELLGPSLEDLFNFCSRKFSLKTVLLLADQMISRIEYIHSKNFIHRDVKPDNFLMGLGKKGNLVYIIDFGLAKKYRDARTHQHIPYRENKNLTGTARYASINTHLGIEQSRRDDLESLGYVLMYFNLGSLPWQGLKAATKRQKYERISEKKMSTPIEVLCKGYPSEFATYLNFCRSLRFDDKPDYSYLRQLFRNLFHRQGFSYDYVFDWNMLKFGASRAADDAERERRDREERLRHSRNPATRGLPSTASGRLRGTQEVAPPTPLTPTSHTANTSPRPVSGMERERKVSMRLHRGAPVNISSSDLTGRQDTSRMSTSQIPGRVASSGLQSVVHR
LCK, sequence (P06239 whole entry): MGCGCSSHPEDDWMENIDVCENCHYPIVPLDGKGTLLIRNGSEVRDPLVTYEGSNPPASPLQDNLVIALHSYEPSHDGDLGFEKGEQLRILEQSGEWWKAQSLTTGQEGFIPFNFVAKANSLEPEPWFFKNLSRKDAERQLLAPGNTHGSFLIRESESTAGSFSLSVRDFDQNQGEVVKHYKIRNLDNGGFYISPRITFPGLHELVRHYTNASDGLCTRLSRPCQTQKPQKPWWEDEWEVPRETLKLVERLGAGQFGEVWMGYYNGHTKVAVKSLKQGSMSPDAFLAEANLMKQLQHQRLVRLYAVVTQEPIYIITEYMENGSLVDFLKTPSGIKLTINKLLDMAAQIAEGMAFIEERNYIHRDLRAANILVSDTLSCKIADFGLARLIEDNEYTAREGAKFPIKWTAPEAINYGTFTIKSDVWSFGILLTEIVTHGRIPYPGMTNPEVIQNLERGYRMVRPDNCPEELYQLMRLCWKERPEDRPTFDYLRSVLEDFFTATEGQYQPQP
CK1e, sequence (P49674 whole entry): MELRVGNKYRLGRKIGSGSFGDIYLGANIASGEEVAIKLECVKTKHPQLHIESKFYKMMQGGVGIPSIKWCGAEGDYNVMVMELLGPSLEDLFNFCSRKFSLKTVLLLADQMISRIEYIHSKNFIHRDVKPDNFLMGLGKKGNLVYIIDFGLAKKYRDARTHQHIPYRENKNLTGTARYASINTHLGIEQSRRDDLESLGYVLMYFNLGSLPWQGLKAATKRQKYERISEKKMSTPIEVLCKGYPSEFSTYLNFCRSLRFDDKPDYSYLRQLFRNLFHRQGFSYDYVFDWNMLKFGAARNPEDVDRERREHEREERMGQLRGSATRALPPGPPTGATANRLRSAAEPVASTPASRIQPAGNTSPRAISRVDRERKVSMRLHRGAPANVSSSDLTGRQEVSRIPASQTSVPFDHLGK
ABL2/ARG, sequence (P42684 whole entry): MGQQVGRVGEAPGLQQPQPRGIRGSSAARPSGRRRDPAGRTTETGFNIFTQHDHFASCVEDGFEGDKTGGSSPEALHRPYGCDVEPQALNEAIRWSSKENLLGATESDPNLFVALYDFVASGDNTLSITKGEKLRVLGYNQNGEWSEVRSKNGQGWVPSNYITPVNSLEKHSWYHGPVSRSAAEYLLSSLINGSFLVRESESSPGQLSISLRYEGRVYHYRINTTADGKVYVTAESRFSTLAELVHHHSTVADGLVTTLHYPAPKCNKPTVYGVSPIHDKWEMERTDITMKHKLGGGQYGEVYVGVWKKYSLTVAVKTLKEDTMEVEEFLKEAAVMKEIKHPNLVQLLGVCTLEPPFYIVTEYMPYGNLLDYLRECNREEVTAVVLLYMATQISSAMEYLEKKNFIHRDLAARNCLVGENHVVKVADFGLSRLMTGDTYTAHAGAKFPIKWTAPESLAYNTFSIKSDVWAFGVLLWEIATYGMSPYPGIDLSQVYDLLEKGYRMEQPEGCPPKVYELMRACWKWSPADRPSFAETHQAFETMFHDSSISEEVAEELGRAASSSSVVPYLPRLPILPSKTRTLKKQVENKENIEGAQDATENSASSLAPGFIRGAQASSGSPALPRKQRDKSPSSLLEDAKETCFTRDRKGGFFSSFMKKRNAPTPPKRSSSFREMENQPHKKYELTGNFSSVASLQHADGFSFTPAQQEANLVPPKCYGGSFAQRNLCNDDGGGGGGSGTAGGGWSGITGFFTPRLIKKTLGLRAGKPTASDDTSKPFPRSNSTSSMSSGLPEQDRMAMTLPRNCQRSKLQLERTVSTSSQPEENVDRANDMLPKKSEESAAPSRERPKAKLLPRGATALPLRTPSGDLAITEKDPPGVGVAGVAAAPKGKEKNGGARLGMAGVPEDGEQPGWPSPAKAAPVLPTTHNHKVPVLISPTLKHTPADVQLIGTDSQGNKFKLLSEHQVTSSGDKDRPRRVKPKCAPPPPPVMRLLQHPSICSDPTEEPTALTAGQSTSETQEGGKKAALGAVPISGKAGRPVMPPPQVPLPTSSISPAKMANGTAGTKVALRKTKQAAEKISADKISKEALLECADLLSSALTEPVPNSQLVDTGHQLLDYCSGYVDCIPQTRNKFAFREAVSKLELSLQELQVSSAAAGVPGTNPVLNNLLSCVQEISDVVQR
MSK1/RPS6KA5, sequence (O75582 whole entry): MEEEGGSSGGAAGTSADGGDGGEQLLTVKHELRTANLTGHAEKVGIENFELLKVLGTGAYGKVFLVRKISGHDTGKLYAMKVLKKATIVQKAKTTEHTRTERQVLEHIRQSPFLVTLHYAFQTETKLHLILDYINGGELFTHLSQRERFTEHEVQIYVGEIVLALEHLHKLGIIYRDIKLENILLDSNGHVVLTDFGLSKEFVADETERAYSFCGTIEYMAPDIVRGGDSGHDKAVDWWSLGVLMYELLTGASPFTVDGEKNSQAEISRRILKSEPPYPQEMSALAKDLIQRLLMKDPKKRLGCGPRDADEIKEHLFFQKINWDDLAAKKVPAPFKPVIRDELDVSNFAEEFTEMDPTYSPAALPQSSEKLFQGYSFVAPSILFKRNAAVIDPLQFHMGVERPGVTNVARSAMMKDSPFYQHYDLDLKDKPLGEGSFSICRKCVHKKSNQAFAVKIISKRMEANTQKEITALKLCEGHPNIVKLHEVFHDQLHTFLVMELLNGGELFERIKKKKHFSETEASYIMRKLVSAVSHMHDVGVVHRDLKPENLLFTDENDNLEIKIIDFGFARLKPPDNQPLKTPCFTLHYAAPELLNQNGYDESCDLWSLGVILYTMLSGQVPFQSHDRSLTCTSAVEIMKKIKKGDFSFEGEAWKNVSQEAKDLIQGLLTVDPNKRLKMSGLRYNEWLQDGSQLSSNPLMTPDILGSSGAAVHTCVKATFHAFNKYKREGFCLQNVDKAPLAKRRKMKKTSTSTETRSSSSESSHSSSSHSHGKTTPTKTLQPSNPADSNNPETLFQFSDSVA
CDK5/p25, sequence (Q00535 whole entry, species assumed): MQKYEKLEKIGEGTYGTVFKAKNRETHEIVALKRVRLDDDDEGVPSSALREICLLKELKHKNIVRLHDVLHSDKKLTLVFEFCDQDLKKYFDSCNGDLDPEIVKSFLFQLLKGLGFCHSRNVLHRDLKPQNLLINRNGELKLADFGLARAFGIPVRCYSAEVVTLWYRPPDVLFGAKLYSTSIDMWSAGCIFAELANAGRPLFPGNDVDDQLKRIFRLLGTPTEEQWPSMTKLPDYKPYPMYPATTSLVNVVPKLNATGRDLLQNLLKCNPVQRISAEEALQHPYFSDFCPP
CK1g1, sequence (Q9HCP0 whole entry): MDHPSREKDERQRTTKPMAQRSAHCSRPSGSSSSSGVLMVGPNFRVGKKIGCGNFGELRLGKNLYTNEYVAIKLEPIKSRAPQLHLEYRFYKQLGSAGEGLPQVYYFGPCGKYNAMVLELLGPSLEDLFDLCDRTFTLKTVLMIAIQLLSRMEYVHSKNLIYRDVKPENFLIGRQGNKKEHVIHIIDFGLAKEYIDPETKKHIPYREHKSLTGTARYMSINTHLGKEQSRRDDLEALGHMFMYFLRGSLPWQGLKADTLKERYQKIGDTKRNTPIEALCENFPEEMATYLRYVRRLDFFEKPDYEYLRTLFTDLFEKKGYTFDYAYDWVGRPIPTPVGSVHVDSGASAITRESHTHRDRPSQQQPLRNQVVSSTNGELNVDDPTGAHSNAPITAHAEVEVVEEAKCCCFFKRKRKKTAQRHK
CK1g2, sequence (P78368 whole entry, species assumed): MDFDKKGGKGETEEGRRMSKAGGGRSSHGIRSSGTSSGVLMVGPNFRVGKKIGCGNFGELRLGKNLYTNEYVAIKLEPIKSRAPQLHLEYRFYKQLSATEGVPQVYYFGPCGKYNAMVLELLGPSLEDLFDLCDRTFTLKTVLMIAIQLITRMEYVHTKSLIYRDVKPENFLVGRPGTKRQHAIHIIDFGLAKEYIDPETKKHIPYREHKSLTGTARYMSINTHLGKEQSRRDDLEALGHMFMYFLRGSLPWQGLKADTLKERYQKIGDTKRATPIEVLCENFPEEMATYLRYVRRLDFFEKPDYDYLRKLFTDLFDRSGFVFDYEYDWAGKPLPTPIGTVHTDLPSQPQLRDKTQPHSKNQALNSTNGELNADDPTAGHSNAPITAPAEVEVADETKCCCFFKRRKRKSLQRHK

## NC(=O)c1c(N)c(C(=O)c2ccc(F)cc2)n2ccccc12 [Comparative Compound 987, 2-amino-3-[(4-fluorophenyl)carbonyl]indolizine-1-carboxamide]
[1]; listed as Cmp 987
  % of remaining activity (relative to DMSO): 17.57%
[1]; [28]
  remaining activity at 10 µM: 20.3%
[2]; listed as Cmp 987
  % of remaining activity (relative to DMSO): 83.33%
[2]; [28]
  remaining activity at 10 µM: 88.1%
[3]; listed as Cmp 987
  % of remaining activity (relative to DMSO): 37.80%
[3]; [28]
  remaining activity at 10 µM: 39.8%
[4]; listed as Cmp 987
  % of remaining activity (relative to DMSO): 91.79%
[4]; [28]
  remaining activity at 10 µM: 98.2%
[5]; listed as Cmp 987
  % of remaining activity (relative to DMSO): 18.19%
[5]; [28]
  remaining activity at 10 µM: 20.1%
[6]; listed as Cmp 987
  % of remaining activity (relative to DMSO): 99.58%
[6]; [28]
  remaining activity at 10 µM: 104%
[7]; listed as Cmp 987
  % of remaining activity (relative to DMSO): 78.23%
[7]; [28]
  remaining activity at 10 µM: 77.7%
[8]; listed as Cmp 987
  % of remaining activity (relative to DMSO): 97.42%
[8]; [28]
  remaining activity at 10 µM: 101%
[9]; listed as Cmp 987
  % of remaining activity (relative to DMSO): 72.17%
[9]; [28]
  remaining activity at 10 µM: 72.7%
[10]; listed as Cmp 987
  % of remaining activity (relative to DMSO): 34.51%
[10]; [28]
  remaining activity at 10 µM: 32%
[11]; listed as Cmp 987
  % of remaining activity (relative to DMSO): 50.05%
[11]; [28]
  remaining activity at 10 µM: 49.4%
[12]; listed as Cmp 987
  % of remaining activity (relative to DMSO): 86.54%
[12]; [28]
  remaining activity at 10 µM: 78.7%
[13]; listed as Cmp 987
  % of remaining activity (relative to DMSO): 68.98%
[13]; [28]
  remaining activity at 10 µM: 70%
[14]; listed as Cmp 987
  % of remaining activity (relative to DMSO): 63.80%
[14]; [28]
  remaining activity at 10 µM: 60%
[15]; listed as Cmp 987
  % of remaining activity (relative to DMSO): 83.06%
[15]; [28]
  remaining activity at 10 µM: 90.3%
[16]; listed as Cmp 987
  % of remaining activity (relative to DMSO): 58.89%
[16]; [28]
  remaining activity at 10 µM: 63.9%
[17]; listed as Cmp 987
  % of remaining activity (relative to DMSO): 87.76%
[17]; [28]
  remaining activity at 10 µM: 91.4%
[18]; listed as Cmp 987
  % of remaining activity (relative to DMSO): 17.83^$ %
[18]; [28]
  remaining activity at 10 µM: 17.6%
[19]; listed as Cmp 987
  % of remaining activity (relative to DMSO): 98.31%
[19]; [28]
  remaining activity at 10 µM: 95%
[20]; listed as Cmp 987
  % of remaining activity (relative to DMSO): 75.10%
[20]; [28]
  remaining activity at 10 µM: 88.8%
[21]; listed as Cmp 987
  % of remaining activity (relative to DMSO): 33.43%
[21]; [28]
  remaining activity at 10 µM: 36.9%
[22]; listed as Cmp 987
  % of remaining activity (relative to DMSO): 66.13%
[22]; [28]
  remaining activity at 10 µM: 73%
[23]; listed as Cmp 987
  % of remaining activity (relative to DMSO): 40.46%
[23]; [28]
  remaining activity at 10 µM: 36.3%
[24]; listed as Cmp 987
  % of remaining activity (relative to DMSO): 92.49%
[24]; [28]
  remaining activity at 10 µM: 96.9%
[25]; listed as Cmp 987
  % of remaining activity (relative to DMSO): 69.49%
[25]; [28]
  remaining activity at 10 µM: 68.5%
[26]; listed as Cmp 987
  % of remaining activity (relative to DMSO): 40.00%
[26]; [28]
  remaining activity at 10 µM: 42.8%
[27]; CK1d, 10 μM compound, duplicate, listed as Cmp 987
  % of remaining activity (relative to DMSO): 5.40%
[27]; CK1d, 10 μM compound, duplicate, read-out: % of remaining activity (relative to DMSO)
  remaining activity at 10 µM: 5.71%
[27]
  IC50: 310 nM

## O=C1Nc2ccc(I)cc2/C1=C/c1cc(Br)c(O)c(Br)c1 [GW5074]
[27]
  IC50: 113 nM
